In US6737383B1, “Herbicidal oxadiazolidines” (priority 1999, dated 2004):

How the values were obtained:
blackgrass = assay: Test B pre/postemergence blackgrass; type: in vivo, Alopecurus myosuroides
Summary of the method: (§1)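 Test chemicals in a non-phytotoxic solvent mixture with surfactant were sprayed preemergence onto planted seeds and postemergence onto plants 2 to 18 cm tall (1- to 4-leaf stage). After twelve to sixteen days in a greenhouse, injury was visually rated against untreated controls from 0 (no effect) to 10 (complete control).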

bedstraw = assay: Test B pre/postemergence bedstraw; type: in vivo, Galium aparine
Summary of the method: as §1

smallflower flatsedge = assay: Test B flood test smallflower flatsedge; type: in vivo, Cyperus difformis; settings: for Plant response rating, S. Flatsedge (0 to 10 scale, 0 is no effect, 10 is complete control) / S. Flatsedge plant response rating (0 to 10 scale, 0 is no effect, 10 is complete control): visual evaluation after twelve to sixteen days; for S. Flatsedge plant response rating (0 to 10 scale, 0 is no effect, 10 is complete control): under heading Pre-emergence
Summary of the method: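 Each value is a visual injury score relative to controls, with 10 meaning complete control and 0 no effect. Evaluation took place twelve to sixteen days after the 2-leaf-stage plants were treated and kept in the greenhouse.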

surinam grass = assay: Test B pre/postemergence surinam grass; type: in vivo, Brachiaria decumbens
Summary of the method: as §1

[1] = Postemergence, Rate 250 g/ha, scale 0 to 10
[2] = Postemergence, Rate 500 g/ha, scale of 0 to 10 where 0 is no effect and 10 is complete control
[3] = Preemergence, Rate 62 g/ha, scale of 0 to 10 where 0 is no effect and 10 is complete control
[4] = Preemergence, Rate 125 g/ha, scale of 0 to 10 where 0 is no effect and 10 is complete control
[5] = Preemergence, Rate 250 g/ha, scale 0 to 10, 0 is no effect, 10 is complete control
[6] = Preemergence, Rate 500 g/ha, scale 0 to 10, 0 is no effect, 10 is complete control
[7] = Rate 62 g/ha, Postemergence, scale 0 to 10, 0 no effect, 10 complete control
[8] = Rate 125 g/ha, Postemergence, scale 0 to 10, 0 is no effect, 10 is complete control
[9] = Rate 62 g/ha, flood test species, Pre-emergence
[10] = Rate 125 g/ha, flood test species
[11] = Rate 250 g/ha, Pre-emergence (flood test species), scale 0 to 10, 0 is no effect, 10 is complete control
[12] = Rate 500 g/ha, Pre-emergence, flood test species, scale 0 to 10 (0 no effect, 10 complete control)
[13] = Preemergence, Rate 250 g/ha, scale of 0 to 10 where 0 is no effect and 10 is complete control
[14] = Preemergence, Rate 500 g/ha, scale of 0 to 10 where 0 is no effect and 10 is complete control
[15] = Rate 125 g/ha, Postemergence, scale of 0 to 10 where 0 is no effect and 10 is complete control
[16] = Rate 250 g/ha, Postemergence, scale of 0 to 10 where 0 is no effect and 10 is complete control
[17] = Rate 500 g/ha, Postemergence, scale 0 to 10, 0 no effect, 10 complete control
[18] = Rate 125 g/ha, Pre-emergence, flood test species, scale 0 to 10 where 0 is no effect and 10 is complete control
[19] = Rate 250 g/ha, Pre-emergence, flood-test species, scale 0 to 10, 0 is no effect, 10 is complete control
[20] = Preemergence, Rate 125 g/ha, 0 is no effect, 10 is complete control
[21] = Rate 62 g/ha, Postemergence, scale of 0 to 10 where 0 is no effect and 10 is complete control
[22] = Rate 125 g/ha, Postemergence, scale 0 to 10
[23] = Rate 500 g/ha, Postemergence, scale 0 to 10
[24] = Postemergence, Rate 125 g/ha, scale 0 to 10, 0 is no effect, 10 is complete control
[25] = Postemergence, Rate 250 g/ha, scale 0 to 10, 0 is no effect, 10 is complete control
[26] = Preemergence, Rate 62 g/ha, scale 0 to 10 (0 no effect, 10 complete control)
[27] = Postemergence, Rate 62 g/ha, scale 0 to 10, 0 is no effect, 10 is complete control
[28] = Postemergence, Rate 125 g/ha, scale of 0 to 10 where 0 is no effect and 10 is complete control
[29] = Postemergence, Rate 250 g/ha, scale of 0 to 10, 0 is no effect, 10 is complete control
[30] = Preemergence, Rate 250 g/ha, scale 0 to 10 (0 no effect, 10 complete control)

CC(C)N(C(=O)n1oc(=O)n(CCl)c1=O)c1ccc(F)cc1F [Compound 437]
Blackgrass plant response rating (blackgrass; [1]): 0
Blackgrass plant response rating (blackgrass; [2]): 0
Plant response rating, Blackgrass (blackgrass; [3]): 0
Plant response rating, Blackgrass (blackgrass; [4]): 0
Blackgrass plant response rating (blackgrass; [5]): 0
Blackgrass plant response rating (blackgrass; [6]): 0
Blackgrass plant response rating (blackgrass; [7]): 0
Blackgrass plant response rating (blackgrass; [8]): 0
Bedstraw plant response rating (bedstraw; [1]): 0
Bedstraw plant response rating (bedstraw; [7]): 0
Bedstraw plant response rating (bedstraw; [8]): 0
Plant response rating, S. Flatsedge (0 to 10 scale, 0 is no effect, 10 is complete control) (smallflower flatsedge; [9]): 0
S. Flatsedge plant response rating (0 to 10 scale, 0 is no effect, 10 is complete control) (smallflower flatsedge; [10]): 0
S. Flatsedge plant response rating (smallflower flatsedge; [11]): 0
S. Flatsedge plant response rating (smallflower flatsedge; [12]): 0
B. signalgrass plant response rating (surinam grass; Postemergence, Rate 250 g/ha, scale 0 to 10, 0 no effect, 10 complete control): 0
B. signalgrass plant response rating (surinam grass; [2]): 0
Plant response rating, B. signalgrass (surinam grass; [3]): 0
Plant response rating, B. signalgrass (surinam grass; [4]): 0
B. signalgrass plant response rating (surinam grass; [5]): 0
B. signalgrass plant response rating (surinam grass; [6]): 0
B. signalgrass plant response rating (surinam grass; [7]): 0
B. signalgrass plant response rating (surinam grass; [8]): 0

CC(C)N(C(=O)n1oc(=O)n(CC2CCCC2)c1=O)c1ccc(F)cc1 [Compound 322]
Blackgrass plant response rating (blackgrass; [3]): 0
Blackgrass plant response rating (0 to 10 scale) (blackgrass; Preemergence, Rate 125 g/ha): 0
Blackgrass plant response rating (blackgrass; [13]): 5
Blackgrass plant response rating (blackgrass; [14]): 7
Blackgrass plant response rating (blackgrass; [7]): 0
Blackgrass plant response rating (blackgrass; [15]): 0
Plant response rating, Blackgrass (blackgrass; [16]): 1
Plant response rating, Blackgrass (blackgrass; [17]): 8
Bedstraw plant response rating (bedstraw; [3]): 0
Bedstraw plant response rating (0 to 10 scale) (bedstraw; Preemergence, Rate 125 g/ha): 0
Bedstraw plant response rating (bedstraw; [14]): 2
Bedstraw plant response rating (bedstraw; [7]): 0
Bedstraw plant response rating (bedstraw; [15]): 0
Plant response rating, Bedstraw (bedstraw; [16]): 4
Plant response rating, Bedstraw (bedstraw; [17]): 4
S. Flatsedge plant response rating (smallflower flatsedge; Pre-emergence, Rate 1000 g/ha, scale 0 to 10 (0 no effect, 10 complete control)): 0
S. Flatsedge plant response rating (smallflower flatsedge; [18]): 0
S. Flatsedge plant response rating (smallflower flatsedge; [19]): 0
B. signalgrass plant response rating (surinam grass; [3]): 0
B. signalgrass plant response rating (0 to 10 scale, 0 is no effect, 10 is complete control) (surinam grass; Preemergence, Rate 125 g/ha): 0
B. signalgrass plant response rating (surinam grass; [13]): 1
B. signalgrass plant response rating (surinam grass; [14]): 3
B. signalgrass plant response rating (surinam grass; [7]): 0
B. signalgrass plant response rating (surinam grass; [15]): 0
Plant response rating, B. signalgrass (surinam grass; [16]): 0
Plant response rating, B. signalgrass (surinam grass; [17]): 3

Cc1ccccc1-n1c(=O)on(C(=O)N(c2ccc(S(C)(=O)=O)cc2)C(C)C)c1=O [Compound 203]
Blackgrass plant response rating (blackgrass; [3]): 0
Blackgrass plant response rating (0 to 10 scale) (blackgrass; [20]): 0
Blackgrass plant response rating (blackgrass; [5]): 0
Plant response rating, Blackgrass (blackgrass; [14]): 0
Blackgrass plant response rating (blackgrass; [21]): 0
Blackgrass plant response rating (blackgrass; [22]): 0
Plant response rating (0 to 10; 0 is no effect, 10 is complete control), Blackgrass (blackgrass; Rate 250 g/ha, Postemergence): 0
Blackgrass plant response rating (blackgrass; [23]): 0
Bedstraw plant response rating (bedstraw; [3]): 0
Bedstraw plant response rating (0 to 10 scale) (bedstraw; [20]): 0
Bedstraw plant response rating (bedstraw; [5]): 0
Plant response rating, Bedstraw (bedstraw; [14]): 0
Bedstraw plant response rating (bedstraw; [21]): 0
Bedstraw plant response rating (bedstraw; [22]): 0
Plant response rating (0 to 10; 0 is no effect, 10 is complete control), Bedstraw (bedstraw; Rate 250 g/ha, Postemergence): 0
Bedstraw plant response rating (bedstraw; [23]): 0
S. Flatsedge plant response rating (smallflower flatsedge; Rate 62 g/ha, headed Pre-emergence (flood test species), scale 0 to 10 (0 no effect, 10 complete control)): 0
S. Flatsedge plant response rating (smallflower flatsedge; [18]): 0
S. Flatsedge plant response rating (smallflower flatsedge; [19]): 0
S. Flatsedge plant response rating (smallflower flatsedge; [12]): 0
B. signalgrass plant response rating (surinam grass; [3]): 0
B. signalgrass plant response rating (0 to 10 scale) (surinam grass; [20]): 0
B. signalgrass plant response rating (surinam grass; [5]): 0
Plant response rating, B. signalgrass (surinam grass; [14]): 0
B. signalgrass plant response rating (surinam grass; [21]): 0
B. signalgrass plant response rating (surinam grass; Rate 125 g/ha, Postemergence, scale 0 (no effect) to 10 (complete control)): 0
Plant response rating, B. signalgrass (surinam grass; Rate 250 g/ha, Postemergence, scale 0 to 10, 0 is no effect, 10 is complete control): 0
B. signalgrass plant response rating (surinam grass; [17]): 0

CC(C)N(C(=O)n1oc(=O)n(C(C)Cl)c1=O)c1ccc(F)cc1 (stereo not shown) [Compound 393]
Plant response rating, Blackgrass (blackgrass; [24]): 2
Plant response rating, Blackgrass (blackgrass; [25]): 3
Blackgrass plant response rating (blackgrass; [2]): 8
Plant response rating, Blackgrass (blackgrass; [26]): 0
Plant response rating, Blackgrass (blackgrass; [4]): 0
Blackgrass plant response rating (blackgrass; [13]): 0
Blackgrass plant response rating (blackgrass; [14]): 3
Blackgrass plant response rating (blackgrass; [21]): 0
Plant response rating, Bedstraw (bedstraw; [26]): 0
Plant response rating, S. Flatsedge (0 to 10 scale, 0 is no effect, 10 is complete control) (smallflower flatsedge; [9]): 0
S. Flatsedge plant response rating (0 to 10 scale, 0 is no effect, 10 is complete control) (smallflower flatsedge; [10]): 0
S. Flatsedge plant response rating (smallflower flatsedge; [19]): 0
S. Flatsedge plant response rating (smallflower flatsedge; [12]): 0
Plant response rating, B. signalgrass (surinam grass; [24]): 0
Plant response rating, B. signalgrass (surinam grass; [25]): 0
B. signalgrass plant response rating (surinam grass; [2]): 0
Plant response rating, B. signalgrass (surinam grass; [26]): 0
Plant response rating, B. signalgrass (surinam grass; [4]): 0
B. signalgrass plant response rating (surinam grass; [13]): 0
B. signalgrass plant response rating (surinam grass; [14]): 2
B. signalgrass plant response rating (surinam grass; [21]): 0

CC(=O)N(C)CCn1c(=O)on(C(=O)N(c2ccc(F)cc2)C(C)C)c1=O [Compound 625]
Plant response rating, Blackgrass (blackgrass; [27]): 0
Plant response rating, Blackgrass (blackgrass; [28]): 2
Blackgrass plant response rating (blackgrass; [29]): 7
Plant response rating, Blackgrass (blackgrass; [2]): 7
Blackgrass plant response rating (blackgrass; [26]): 0
Blackgrass plant response rating (blackgrass; [4]): 3
Plant response rating, Blackgrass (blackgrass; [30]): 7
Plant response rating, Blackgrass (blackgrass; [14]): 9
Plant response rating, Bedstraw (bedstraw; [27]): 0
Plant response rating, Bedstraw (bedstraw; [28]): 0
Plant response rating, S. Flatsedge (0 to 10 scale, 0 is no effect, 10 is complete control) (smallflower flatsedge; [9]): 0
S. Flatsedge plant response rating (0 to 10 scale, 0 is no effect, 10 is complete control) (smallflower flatsedge; [10]): 0
S. Flatsedge plant response rating (smallflower flatsedge; [11]): 0
S. Flatsedge plant response rating (smallflower flatsedge; Rate 500 g/ha, Pre-emergence section of Table B, 0 to 10 scale (0 no effect, 10 complete control)): 0
Plant response rating, B. signalgrass (surinam grass; [27]): 0
Plant response rating, B. signalgrass (surinam grass; [28]): 0
B. signalgrass plant response rating (surinam grass; [29]): 2
Plant response rating, B. signalgrass (surinam grass; [2]): 5
B. signalgrass plant response rating (surinam grass; [26]): 0
B. signalgrass plant response rating (surinam grass; [4]): 4
Plant response rating, B. signalgrass (surinam grass; [30]): 8
Plant response rating, B. signalgrass (surinam grass; [14]): 10

CSCCn1c(=O)on(C(=O)N(c2ccccc2)C(C)C)c1=O [Compound 419]
Plant response rating, Blackgrass (blackgrass; [24]): 0
Plant response rating, Blackgrass (blackgrass; [25]): 0
Blackgrass plant response rating (blackgrass; [2]): 4
Plant response rating, Blackgrass (blackgrass; [26]): 0
Plant response rating, Blackgrass (blackgrass; [4]): 0
Blackgrass plant response rating (blackgrass; [13]): 0
Blackgrass plant response rating (blackgrass; [6]): 3
Blackgrass plant response rating (blackgrass; [21]): 0
Plant response rating, Bedstraw (bedstraw; [24]): 0
Plant response rating, Bedstraw (bedstraw; [25]): 0
Bedstraw plant response rating (bedstraw; [2]): 0
Bedstraw plant response rating (bedstraw; [21]): 0
S. Flatsedge plant response rating (smallflower flatsedge; Postemergence section (flood test species), Rate 500 g/ha, scale of 0 to 10 where 0 is no effect and 10 is complete control): 3
Plant response rating, S. Flatsedge (smallflower flatsedge; flood test species, listed under Postemergence, Rate 250 g/ha, scale 0 to 10, 0 is no effect, 10 is complete control): 0
Plant response rating, B. signalgrass (surinam grass; [24]): 0
Plant response rating, B. signalgrass (surinam grass; [25]): 0
B. signalgrass plant response rating (surinam grass; [2]): 2
Plant response rating, B. signalgrass (surinam grass; [26]): 0
Plant response rating, B. signalgrass (surinam grass; [4]): 0
B. signalgrass plant response rating (surinam grass; [13]): 2
B. signalgrass plant response rating (surinam grass; [14]): 8
B. signalgrass plant response rating (surinam grass; [21]): 0
